Reference: ChEMBL document CHEMBL3808389, “Stable and biocompatible cystine knot peptides from the marine sponge Asteropus sp” (Bioorg Med Chem, 2016)
Where a SMILES comes first, the peptide text is derived from it. Bridges are numbered along the chain shown (N, C = ends). [ ]: non-standard residue; d: D form. pGlu = O=C1CC[C@@H](C(=O)O)N1

Tests used:
[1] = Toxicity in human RBC assessed as hemolytic activity at 2 uM measured after 1 hr by spectrophotometric analysis; format: cell-based; details: erythrocyte
RAW264.7 [2] = assay: Cytotoxicity against mouse RAW264.7 cells assessed as cell viability at 10 or 40 ug/ml measured after 24 hrs by WST assay; format: cell-based; details: raw264.7, 24 h
[3] = Cytotoxicity against rat Ac2F cells at 30 uM; format: cell-based
Mus musculus [4] = assay: Toxicity in mouse assessed as behavior changes at 40 mg/kg, ip after 7 days; format: organism-based; details: in vivo, 168 h
Mus musculus [5] = assay: Toxicity in mouse assessed as mortality at 40 mg/kg, ip after 7 days; format: organism-based; details: in vivo, 168 h
Mus musculus [6] = assay: Toxicity in mouse assessed as appearance changes at 40 mg/kg, ip after 7 days; format: organism-based; details: in vivo, 168 h
Mus musculus [7] = assay: Toxicity in mouse assessed as convulusion at 40 mg/kg, ip after 12 hrs; format: organism-based; details: in vivo
Mus musculus [8] = assay: Toxicity in mouse assessed as aggressiveness at 40 mg/kg, ip after 12 hrs; format: organism-based; details: in vivo
Mus musculus [9] = assay: Toxicity in mouse assessed as stiff tail at 40 mg/kg, ip after 12 hrs; format: organism-based; details: in vivo
Mus musculus [10] = assay: Toxicity in mouse assessed as paralysis at 40 mg/kg, ip after 12 hrs; format: organism-based; details: in vivo
RAW264.7 [11] = assay: Toxicity in mouse RAW264.7 cells assessed as in induction of Nitric oxide production at 10 or 40 ug/ml measured after 24 hrs by Griess reaction method; format: cell-based; details: raw264.7, 24 h
[12] = Toxicity in human RBC assessed as hemolytic activity at 50 uM measured after 1 hr by spectrophotometric analysis; format: cell-based, Erythrocyte; details: erythrocyte, 1 h, 50 µM
[13] = Toxicity in Thamnaconus modestus RBC assessed as hemolytic activity at 0.08 to 50 uM measured after 1 hr by spectrophotometric analysis; format: cell-based; details: erythrocyte
[14] = Thermal stability in Tris-acetate-EDTA buffer of pH 8.3 at 100 degC measured upto 12 hrs by reverse-phase HPLC analysis; format: physicochemical; details: pH 8.3, 12 h

Structure (SMILES): CC[C@H](C)[C@H](NC(=O)CN)C(=O)NCC(=O)N[C@@H](C)C(=O)N[C@H](C(=O)N[C@@H](CC(C)C)C(=O)N[C@@H](CCCCN)C(=O)N[C@H](C(=O)N[C@@H](CC(C)C)C(=O)N[C@H](C(=O)N[C@H](C(=O)NCC(=O)N[C@@H](CC(C)C)C(=O)N1CCC[C@H]1C(=O)N[C@@H](C)C(=O)N[C@@H](CC(C)C)C(=O)N[C@H](C(=O)N[C@@H](CO)C(=O)N[C@@H](Cc1c[nH]c2ccccc12)C(=O)N[C@H](C(=O)N[C@@H](CCCCN)C(=O)N[C@@H](CCCNC(=N)N)C(=O)N[C@@H](CCCCN)C(=O)N[C@@H](CCCNC(=N)N)C(=O)N[C@@H](CCC(N)=O)C(=O)N[C@@H](CCC(N)=O)C(N)=O)[C@@H](C)CC)[C@@H](C)CC)[C@@H](C)O)[C@@H](C)O)C(C)C)C(C)C [MELITTIN]
- Activity [1]: Toxic

Structure (SMILES): CC[C@H](C)[C@H](NC(=O)[C@@H](NC(=O)[C@H](Cc1ccc(O)cc1)NC(=O)[C@@H]1CSSC[C@@H]2NC(=O)[C@@H]3CCCN3C(=O)[C@H](CC(N)=O)NC(=O)[C@H](Cc3ccccc3)NC(=O)[C@H](CCC(=O)O)NC(=O)[C@H](C(C)C)NC(=O)[C@H](CC(=O)O)NC(=O)[C@@H]3CSSC[C@H](NC(=O)[C@H]([C@@H](C)O)NC(=O)[C@H](CC(C)C)NC(=O)[C@@H]4CCCN4C(=O)[C@@H]4CCCN4C(=O)[C@H](CSSC[C@H](NC(=O)[C@H](CC(=O)O)NC(=O)[C@@H]4CCC(=O)N4)C(=O)N4CCC[C@H]4C(=O)NCC(=O)N[C@@H](CCC(=O)O)C(=O)NCC(=O)N[C@@H](CCC(=O)O)C(=O)N[C@@H](CCC(N)=O)C(=O)N3)NC2=O)C(=O)N[C@@H]([C@@H](C)CC)C(=O)N2CCC[C@H]2C(=O)NCC(=O)N[C@@H](CC(=O)O)C(=O)N2CCC[C@H]2C(=O)N[C@@H](Cc2ccc(O)cc2)C(=O)NCC(=O)N[C@@H]([C@@H](C)CC)C(=O)N1)[C@@H](C)CC)C(=O)O ([pGlu]DCPGEGEQCDVEFNPCCPPLTCIPGDPYGICYII-OH; disulfide 3-18, 10-23, 17-32)
- Activity (RAW264.7 [2]): Non-toxic
- Activity [3]: Non-toxic
- Activity (Mus musculus [4]): Non-toxic
- Activity (Mus musculus [5]): Non-toxic
- Activity (Mus musculus [6]): Non-toxic
- Activity (Mus musculus [7]): Non-toxic
- Activity (Mus musculus [8]): Non-toxic
- Activity (Mus musculus [9]): Non-toxic
- Activity (Mus musculus [10]): Non-toxic
- Activity (RAW264.7 [11]): Non-toxic
- Activity [12]: Non-toxic
- Activity [13]: Non-toxic
- Stability [14]: Stable
